Measurements reported in patent US9511072B2, “Methods of modulating cell proliferation and cyst formation in polycystic kidney and liver diseases” (The Medical College of Wisconsin, Inc., priority 2006, dated 2016).
“And” between values parts separate entries of the source, which are not always exact repeats. Equal entries are not always repeated. “Also recorded” adds a separate entry of the source.

Test system: BPK mice
Experiment: Chronic HET-0016 treatment of cystic BPK mice (kidney mass, cysts)
Type: in vivo, mouse
Method: This study was conducted using “immortalized” BPK mice as previous described by Sweeney W E et al. (Am J Physiol Cell Physiol, 281:C1695-705, 2001). In brief, BPK female heterozygotes (bpk^+/−) were bred with H-2k^b-ts-A58 transgenic males. Compound heterozygotes (bpk^+/−; H-2K^b-ts-A58^+/−) were identified by PCR and backcrossing to produce cystic offspring. Compound heterozygotes were mated to generate cystic (bpk^−/−; H-2K^b-ts-A58^+/±) and non-cystic (bpk^+/−; H-2K^b-ts-A58^+/±) offspring carrying at least one copy of the Immorto transgene (bpk^−/−; H-2K^b-ts-A58^+/±). All of the mice were genotyped for the H-2K^b-ts-A58 transgene by PCR analysis of DNA extracts from tail sections as described in Takacs-Jarrett M et al. Am J Physiol, 275:F802-11, 1998.
Kidney and liver tissues were harvested for qualitative analysis as described in Sweeney W E et al. (Kidney Int, 57:33-40, 2000) at postnatal day 21. Briefly, kidney and liver were fixed in 4.0% paraformaldehyde in phosphate buffer (pH 7.4) for 30 min at 4° C. Tissues were then washed, dehydrated through a graded series of acetone, and fixed in Immunobed embedding medium (Polysciences, Warrington, Pa.). Sections were cut at 4 μm, mounted on glass slides, and stained with hematoxylin or lectins staining the proximal tubule [Lotus tetragonobulus agglutinin (LTA)] and collecting tubule [Dolichol biflorus agglutinin (DBA)]. Segmental nephron cyst localization was characterized by light microscopy, and cystic lesions were quantitated by a morphometric index as described in Nakanishi K et al. (J Am Soc Nephrol, 12:719-25, 2001), Richards W G et al. (J Clin Invest, 101:935-9, 1998), Sweeney W E et al. (Kidney Int, 57:33-40, 2000), and Sweeney W E et al. (Kidney Int, 64:1310-9, 2003).
We administered HET-0016 (10 mg/kg/day), a specific 20-HETE synthesis inhibitor, intraperitoneally on a daily basis from post-natal day 7 to post-natal day 20. On day 21, the mice were sacrificed and the kidneys analyzed. […] Chronic blockade of 20-HETE synthesis lowered the KW/BW ratio to 9.4 in the HET-0016 treated BPK mice (Table 3).

[1] = BPK (−/−), 10 mg/kg/day i.p., post-natal day 7-20, day 21

N-hydroxy-N-(4-butyl-2-methylphenyl)-formamidine [HET0016]
Body weight [1]: 10.3 ± 1.0^¥ g
Kidney Weight [1]: 0.97 ± 0.32 g
KW/BW (BPK (−/−), 10 mg/kg/day i.p., post-natal day 7-20, day 21, 10 mg/kg/day): 9.4% and 9.4 ± 3.3 %
kidney size (BPK mice, 10 mg/kg/day chronic daily, vehicle 1.08 g): 0.43 g
kidney size vs vehicle-treated BPK mice (FIG. 4) (BPK mice, 10 mg/kg/day i.p.): dramatically smaller
reduction in body weight vs vehicle (BPK mice, 10 mg/kg/day i.p.): not statistically significant
reduction of KW/BW ratio vs vehicle (BPK mice, 10 mg/kg/day i.p.): 53%
reduction of kidney size vs vehicle (BPK mice, 10 mg/kg/day i.p.): 56%
size and number of renal cysts (histology) (BPK mice, 10 mg/kg/day, day 21 kidneys, 10 mg/kg/day): marked reductions in the size and number of renal cysts; also recorded: dramatic reduction in the DBA-labeled collecting tubule cysts
collecting tubule cystic index (CI) (BPK mice, 10 mg/kg/day, untreated 4.7+/−0.6): 1.93+/−0.2
